Laboratory results from the supplement of paper PMC10307832.

Legend:
Assay in all cases: relative viability (nuclei count vs DMSO), 5 days (fraction); higher = more cells survive
[1] = compound: C/C(=N\NC(=S)N1CCC1)/C2=CC=CC=N2 + CS(=O)(=O)N1CCN(Cc2cc3nc(-c4cccc5[nH]ncc45)nc(N4CCOCC4)c3s2)CC1 [Pictilisib] (partner 1 µM)
Procedure, shortened: (§1)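 Values are medians from duplicate plates. Each reflects relative viability, defined as the nuclei count of treated wells over that of vehicle wells. Lung cancer cell lines in 1536-well plates were pin-tool dosed one day after seeding with one drug alone or with a fixed anchor-drug dose plus five library-drug doses (not always all listed) in √10 steps, then fixed, stained and imaged at 4× after 5 days.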

[2] = compound: C/C(=N\NC(=S)N1CCC1)/C2=CC=CC=N2 + NC(=O)Nc1cc(-c2cccc(F)c2)sc1C(=O)N[C@H]1CCCNC1 [AZD7762] (partner 0.2 µM)
Procedure, shortened: as §1

[3] = compound: C/C(=N\NC(=S)N1CCC1)/C2=CC=CC=N2 + Cc1nc(NC(=O)N2CCC[C@H]2C(N)=O)sc1-c1ccnc(C(C)(C)C(F)(F)F)c1 [Alpelisib] (partner 2 µM)
Procedure, shortened: as §1

[4] = compound: C/C(=N\NC(=S)N1CCC1)/C2=CC=CC=N2 + N=C(N)NC(=N)NCCc1ccccc1 [Phenformin] (partner 250 µM)
Procedure, shortened: as §1

| Cell Line | relative viability ([1]; first compound 0.05 µM) | relative viability ([1]; first compound 0.1581 µM) | relative viability ([1]; first compound 0.5 µM) | relative viability ([1]; first compound 1.581 µM) | relative viability ([1]; first compound 5 µM) | relative viability ([2]; first compound 0.05 µM) | relative viability ([2]; first compound 0.1581 µM) | relative viability ([2]; first compound 0.5 µM) | relative viability ([2]; first compound 1.581 µM) | relative viability ([2]; first compound 5 µM) | relative viability ([3]; first compound 0.05 µM) | relative viability ([3]; first compound 0.1581 µM) | relative viability ([3]; first compound 0.5 µM) | relative viability ([3]; first compound 1.581 µM) | relative viability ([3]; first compound 5 µM) | relative viability ([4]; first compound 0.05 µM) | relative viability ([4]; first compound 0.1581 µM) | relative viability ([4]; first compound 0.5 µM) | relative viability ([4]; first compound 1.581 µM) | relative viability ([4]; first compound 5 µM) |
| --- | --- | --- | --- | --- | --- | --- | --- | --- | --- | --- | --- | --- | --- | --- | --- | --- | --- | --- | --- | --- |
| NCI-H3122 | 0.15 | 0.129 | 0.167 | 0.23 | 0.187 | 0.0944 | 0.0773 | 0.115 | 0.13 | 0.114 | 0.154 | 0.133 | 0.193 | 0.196 | 0.192 | 0.0982 | 0.0876 | 0.119 | 0.128 | 0.124 |
| PC-3 [JPC-3] | 0.278 | 0.319 | 0.31 | 0.279 | 0.221 | 0.317 | 0.384 | 0.307 | 0.243 | 0.234 | 0.556 | 1.03 | 0.341 | 0.282 | 0.208 | 0.332 | 0.342 | 0.334 | 0.277 | 0.195 |
| PC-14 | 0.0639 | 0.0478 | 0.0584 | 0.0411 | 0.0523 | 0.08 | 0.12 | 0.106 | 0.0559 | 0.0985 | 0.108 | 0.0754 | 0.067 | 0.0556 | 0.0881 | 0.0972 | 0.134 | 0.095 | 0.0228 | 0.0472 |
| RERF-LC-KJ | 0.19 | 0.17 | 0.173 | 0.18 | 0.191 | 0.176 | 0.238 | 0.18 | 0.16 | 0.208 | 0.212 | 0.234 | 0.23 | 0.205 | 0.256 | 0.316 | 0.279 | 0.319 | 0.273 | 0.287 |
